Results: patent US8551984B2, “Aminopyrimidines as SYK inhibitors” (Merck Sharp & Dohme Corp., priority 2009, dated 2013)
Structures can show the parent of a compound that is named as a salt.

Target: recombinant human SYK (GST-hSYK fusion protein) (Homo sapiens, UniProt P43405)
Assay: biochemical
[1] = rhSYK Activity, Table 64, first part
[2] = rhSYK Activity (IC50), recombinant human GST-SYK 5 pM, ATP 25 μM, biotinylated substrate peptide 250 nM, HTRF, 10-dose titration
[3] = Syk IC50, HTRF, recombinant human GST-SYK

Text: Homogeneous Time-Resolved Fluorescence (HTRF) Assay for the Recombinant Human SYK Enzyme:

Cc1cc(Nc2nccc(C3CC3)n2)cc(-c2cnc(C3(NC(N)=O)CCC3)s2)c1 [Example 64-2]
IC50 [1]: < 100 nM

Cc1cc(Nc2nccc(C(F)(F)F)n2)cc(-c2cnc(C(=O)NC(C)(CO)CO)s2)c1 [Example 87A-12]
IC50 [2]: < 100 nM

Cc1cc(Nc2nccc(C(F)(F)F)n2)cc(-c2cnc(C3(O)CCCN(C(=O)C4CCC(=O)N4)CC3)s2)c1 (centres unmarked) [Example 54D-61]
IC50 (rhSYK Activity, Table 54D): < 100 nM

Cc1cc(Nc2nccc(OC3CCCNCC3)n2)cc(-c2cnc(C3(O)CCC3)s2)c1 (centres unmarked) [Example 94A-21]
IC50 [2]: < 100 nM

COCc1cc(Nc2nccc(C(F)(F)F)n2)cc(-c2cnc([C@@]3(O)CC[C@H](C(=O)O)C(C)(C)C3)s2)c1 [Example 113A-62]
IC50 (rhSYK Activity, Table 113A): < 100 nM

Cc1cc(Nc2nccc(OCC3CCNCC3)n2)cc(-c2cnc(C3(O)CCC3)s2)c1 [Example 94A-24]
IC50 [2]: 100 to 1000 nM

Cc1cc(Nc2nccc(C(F)(F)F)n2)cc(-c2cnc(C3(O)CCN(C(=O)c4ccno4)C3)s2)c1 (centres unmarked) [54B-29]
IC50 (rhSYK Activity, Table 54B): < 100 nM

Cc1cc(Nc2ncc(F)c(C3CC3)n2)cc(-c2cnc(C(C)(C)S(N)(=O)=O)s2)c1 [74A-6]
IC50 (rhSYK Activity, Table 74A): < 100 nM

Cc1cc(Nc2nccc(C(F)(F)F)n2)cc(-c2cnc([C@]3(O)CC[C@@H](NC(=O)Cc4ncccn4)CC3)s2)c1 [Example 54E-23]
IC50 (rhSYK Activity, Table 54E): < 100 nM

Cc1cc(Nc2nccc(C(F)(F)F)n2)cc(-c2cnc(CNC(=O)NC(C)C)s2)c1 [Example 88A-63]
IC50 [2]: < 100 nM

Cc1cc(Nc2nccc(C(F)(F)F)n2)cc(-c2cnc(-c3cccnc3)s2)c1 [Example 114-3]
IC50 [2]: < 100 nM

Cc1cc(Nc2nccc(C(F)(F)F)n2)cc(-c2cnc(CCC(N)=O)s2)c1 [Example 79-2]
IC50 [2]: < 100 nM

Cc1cc(Nc2nccc(C(F)(F)F)n2)cc(-c2cnc(C(=O)NC3(CO)CC3)s2)c1 [Example 87A-9]
IC50 [2]: < 100 nM

Cc1cc(Nc2nccc(C(F)(F)F)n2)cc(-c2cnc(CCc3nnco3)s2)c1 [Example 79-7]
IC50 [2]: < 100 nM

Cc1cc(Nc2nccc(C(F)(F)F)n2)cc(-c2cnc(C(=O)NC(C)C)s2)c1 [Example 87A-1]
IC50 [2]: 100 to 1000 nM

CCOC(=O)[C@H]1CC[C@](O)(c2ncc(-c3cccc(Nc4nccc(C(F)(F)F)n4)c3)s2)CC1 [Example 33A-25]
IC50 (rhSYK Activity, Table 33-A): < 100 nM

Cc1cc(Nc2ncc(F)c(C3CC3)n2)cc(-c2cnc([C@]3(O)CC[C@@H](C(=O)O)[C@@H](C)C3)s2)c1 [Example 113A-34]
IC50 (rhSYK Activity, Table 113A): < 100 nM

Cc1cc(Nc2nccc(OC3CCNC(C)CC3)n2)cc(-c2cnc(C3(O)CCC3)s2)c1 (centres unmarked) [Example 94A-20]
IC50 [2]: < 100 nM

Cc1cc(Nc2nccc(C(F)(F)F)n2)cc(-c2cnc(CN)s2)c1 [Example 88A-40]
IC50 [2]: < 100 nM

FC(F)(F)c1ccnc(Nc2cccc(-c3cnc(CN4CCOCC4)s3)c2)n1 [Example 21-6]
IC50 (rhSYK Activity, Table 21): < 100 nM

Cc1cc(Nc2nccc(C(F)(F)F)n2)cc(-c2cnc(C(=O)N(C)CCS(C)(=O)=O)s2)c1 [Example 87A-27]
IC50 [2]: 1000 to 10000 nM

Cc1cc(Nc2nccc(C(F)(F)F)n2)cc(-c2cnc(C(C)(O)c3ccc(S(C)(=O)=O)cc3)s2)c1 (centres unmarked) [Example 131, 1-[4-(methylsulfonyl)phenyl]-1-[5-(3-methyl-5-{[4-(trifluoromethyl)pyrimidin-2-yl]amino}phenyl)-1,3-thiazol-2-yl]ethanol]
IC50 [2]: < 100 nM

C#Cc1ccc(C(=O)NC2CCC(O)(c3ncc(-c4cc(C)cc(Nc5nccc(C(F)(F)F)n5)c4)s3)CC2)cc1 (centres unmarked) [Example 54E-32]
IC50 (rhSYK Activity, Table 54E): < 100 nM

COC(=O)C1CCC(c2ncc(-c3cc(C)cc(Nc4nccc(C(F)(F)F)n4)c3)s2)=CC1(C)C (centres unmarked) [Example 36A-11]
IC50 (rhSYK Activity, Table 36A): 100 to 1000 nM

Cc1cc(Nc2nccc(C(F)(F)F)n2)cc(-c2cnc(C3(NC(N)=O)COC3)s2)c1 [Example 64-1]
IC50 [1]: < 100 nM

Cc1cc(Nc2nccc(C(F)(F)F)n2)cc(-c2cnc(C(=O)N3CCC(C)(O)C3)s2)c1 (centres unmarked) [Example 87B-12]
IC50 [2]: < 100 nM

COC(=O)C1CCC(O)(c2ncc(-c3cc(C)cc(Nc4ncc(C(F)(F)F)c(OC)n4)c3)s2)CC1(C)C (centres unmarked) [Example 100A-27]
IC50 [2]: 1000 to 10000 nM

Cc1cc(Nc2nccc(C(F)(F)F)n2)cc(-c2cnc(C3CCNC(=O)CC3)s2)c1 (centres unmarked) [Example 36B-4]
IC50 (rhSYK Activity, Table 36B): < 100 nM

Cc1cc(Nc2nccc(C(F)(F)F)n2)cc(-c2cnc(C3(O)CCC(NC(=O)Cn4cnnn4)CC3)s2)c1 (centres unmarked) [Example 54E-13]
IC50 (rhSYK Activity, Table 54E): < 100 nM

Cc1cc(Nc2nccc(C(F)(F)F)n2)cc(-c2cnc(CC(C)(C)C(=O)O)s2)c1 [Example 78, 2,2-dimethyl-3-[5-(3-methyl-5-{[4-(trifluoromethyl)pyrimidin-2-yl]amino}phenyl)-1,3-thiazol-2-yl]propanoic acid (potassium salt and TFA salt)]
IC50 [2]: < 100 nM

Cc1cc(Nc2nccc(C(F)(F)F)n2)cc(-c2cnc(C3(O)CCCN(C(=O)C(O)C(F)(F)F)CC3)s2)c1 (centres unmarked) [Example 54D-97]
IC50 (rhSYK Activity, Table 54D): < 100 nM

Cc1cc(Nc2nccc(C)n2)cc(-c2cnc(C3(O)CCC(C(=O)O)C(c4ccccc4)C3)s2)c1 (centres unmarked) [Example 33B-37]
IC50 (rhSYK Activity, Table 33B): < 100 nM

Cc1cc(Nc2nccc(SCCCO)n2)cc(-c2cnc(C3(O)CCC3)s2)c1 [Example 108A-45]
IC50 (rhSYK Activity, Table 108A): < 100 nM

Cc1cc(Nc2nccc(OCC3CCOCC3)n2)cc(-c2cnc(C3(O)CCC3)s2)c1 [Example 94A-7]
IC50 [2]: < 100 nM

Cc1cc(Nc2nccc(OC(C)C)n2)cc(-c2cnc(C3(O)CCC3)s2)c1 [Example 108A-37]
IC50 (rhSYK Activity, Table 108A): < 100 nM

Cc1cc(Nc2ncc(F)c(C)n2)cc(-c2cnc(C(C)(C)S(N)(=O)=O)s2)c1 [74A-5]
IC50 (rhSYK Activity, Table 74A): < 100 nM

Cc1cc(Nc2nccc(C(F)(F)F)n2)cc(-c2cnc(C3(O)CCNC3)s2)c1 (centres unmarked) [54B-5]
IC50 (rhSYK Activity, Table 54B): < 100 nM

Cc1cc(Nc2nccc(C(C)C)n2)cc(-c2cnc(C3(O)CCC(C(=O)O)C(C)(C)C3)s2)c1 (centres unmarked) [Example 113A-52]
IC50 (rhSYK Activity, Table 113A): < 100 nM

Cc1cc(Nc2nccc(C(F)(F)F)n2)cc(-c2cnc(CN3CCCC(C(N)=O)C3)s2)c1 (centres unmarked) [Example 88B-10]
IC50 [2]: < 100 nM

Cc1cc(Nc2nccc(C(F)(F)F)n2)cc(-c2cnc(C3CCSCC3)s2)c1 [Example 136, N-{3-methyl-5-[2-(tetrahydro-2H-thiopyran-4-yl)-1,3-thiazol-5-yl]phenyl}-4-(trifluoromethyl)pyrimidin-2-amine]
IC50 [2]: < 100 nM

COCCCOc1ccnc(Nc2cc(C)cc(-c3cnc(C4(O)CCC(C(=O)O)C(C)C4)s3)c2)n1 (centres unmarked) [Example 113A-40]
IC50 (rhSYK Activity, Table 113A): < 100 nM

Cc1cc(Nc2ncc(C)c(N(C)C)n2)cc(-c2cnc(C3(O)CCC(C(=O)O)C(C)(C)C3)s2)c1 (centres unmarked) [Example 100A-16]
IC50 [2]: < 100 nM

COC(=O)C1CCC(O)(c2ncc(-c3cc(C)cc(Nc4ncc(F)c(C)n4)c3)s2)CC1(C)C (centres unmarked) [116A-25]
IC50 (rhSYK Activity, Table 116A): < 100 nM

Cc1cc(Nc2nccc(C(F)(F)F)n2)cc(-c2cnc(C3(O)CCC(NC(=O)CCC(=O)N(C)C)CC3)s2)c1 (centres unmarked) [Example 54E-31]
IC50 (rhSYK Activity, Table 54E): < 100 nM

Cc1cc(Nc2nccc(C(F)(F)F)n2)cc(-c2cnc([C@]3(O)CC[C@@H](NC(=O)CCc4cn[nH]c4)CC3)s2)c1 [Example 54E-26]
IC50 (rhSYK Activity, Table 54E): < 100 nM

Cc1cc(Nc2nccc(C(F)(F)F)n2)cc(-c2cnc(C3=CCS(=O)(=O)CC3)s2)c1 [Example 135, N-{3-[2-(1,1-dioxido-3,6-dihydro-2H-thiopyran-4-yl)-1,3-thiazol-5-yl]-5-methylphenyl}-4-(trifluoromethyl)pyrimidin-2-amine]
IC50 [2]: < 100 nM

Cc1cc(Nc2nccc(C(F)(F)F)n2)cc(-c2cnc(-c3cnn(CCC#N)c3)s2)c1 [Example 115-2]
IC50 (rhSYK Activity, Table 115): < 100 nM

COc1nc(Nc2cc(C)cc(-c3cnc(C(C)(C)S(N)(=O)=O)s3)c2)ncc1Cl [74A-7]
IC50 (rhSYK Activity, Table 74A): < 100 nM

COCCCOc1ccnc(Nc2cc(C)cc(-c3cnc([C@]4(O)CC[C@@H](C(=O)O)CC4)s3)c2)n1 [Example 113A-2]
IC50 (rhSYK Activity, Table 113A): < 100 nM

CC1(C)CC(O)(c2ncc(-c3cc(Nc4nccc(C(F)(F)F)n4)cc(C(F)F)c3)s2)CCC1C(=O)O (single isomer, unassigned) [Example 33A-57]
IC50 (rhSYK Activity, Table 33-A): < 100 nM

COC(=O)[C@@H]1CC[C@@](O)(c2ncc(-c3cc(C)cc(Nc4nccc(C(F)(F)F)n4)c3)s2)CC1(C)C [Example 121, Methyl(1R,4S)-4-hydroxy-2,2-dimethyl-4-[5-(3-methyl-5-{[4-(trifluoromethyl)pyrimidin-2-yl]-amino}phenyl)-1,3-thiazol-2-yl]cyclohexanecarboxylate]
IC50 [2]: < 100 nM

Cc1cc(Nc2nccc([C@@H](C)F)n2)cc(-c2cnc([C@@]3(O)CC[C@H](C(=O)O)C(C)(C)C3)s2)c1 [(1S,4R)-4-{5-[3-({4-[(1R)-1-fluoroethyl]pyrimidin-2-yl}amino)-5-methylphenyl]-1,3-thiazol-2-yl}-4-hydroxy-2,2-dimethylcyclohexanecarboxylic acid]
IC50 [3]: < 0.5 nM

Cc1cc(Nc2nccc(C(C)C)n2)cc(-c2cnc(C3(O)CCCN(C(=O)Cn4cnnn4)CC3)s2)c1 (centres unmarked) [Example 54D-19]
IC50 (rhSYK Activity, Table 54D): < 100 nM

CC1(C)CC(O)(c2ncc(-c3cc(CO)cc(Nc4nccc(C(F)(F)F)n4)c3)s2)CCC1C(=O)O (single isomer, unassigned) [Example 33A-51]
IC50 (rhSYK Activity, Table 33-A): < 100 nM

Cc1cc(Nc2nccc(C(F)(F)F)n2)cc(-c2cnc(C3(O)CCN(C(=O)CS(C)(=O)=O)CC3)s2)c1 [Example 54A-47]
IC50 (RHSYK Activity, Table 54A): < 100 nM

Cc1cc(Nc2nccc(C(F)(F)F)n2)cc(-c2cnc(C3(O)CCCN(C(=O)CCC#N)CC3)s2)c1 (centres unmarked) [Example 54D-16]
IC50 (rhSYK Activity, Table 54D): < 100 nM

Cc1cc(Nc2nccc(OCCOCc3ccccc3)n2)cc(-c2cnc(C3(O)CCC3)s2)c1 [Example 94A-9]
IC50 [2]: 100 to 1000 nM

Cc1cc(Nc2nccc(C(F)(F)F)n2)cc(-c2cnc(C3(O)CC4(CC(C(=O)O)C4)C3)s2)c1 (centres unmarked) [6-hydroxy-6-[5-(3-methyl-5-{[4-(trifluoromethyl)pyrimidin-2-yl]amino}phenyl)-1,3-thiazol-2-yl]spiro[3.3]heptane-2-carboxylic]
IC50 [3]: 2 nM

Cc1cc(Nc2nccc(C(F)(F)F)n2)cc(-c2cnc(C3(O)CCN(C(=O)CN4CCCC4=O)CC3)s2)c1 [Example 54A-10]
IC50 (RHSYK Activity, Table 54A): < 100 nM
